The NIST ThermoML archive (doi:10.1016/j.tca.2006.11.008)
Numbers after ± are expanded uncertainties.

Assay: molar enthalpy of vaporization or sublimation
Details: Crystal, Static calorimetry

molar enthalpy (386 K)	molar enthalpy (426.8 K)	Compound
23.9 ± 0.311 kcal/mol	–	NC(=O)N1CCCCC1 [1-piperidinecarboxamide]
26.9 ± 0.311 kcal/mol	–	NC(=O)C1CCCNC1 (stereo not drawn) [3-piperidinecarboxamide]
–	29.5 ± 0.311 kcal/mol	NC(=O)C1CCNCC1 [4-piperidinecarboxamide]
